According to patent US20220233441A1, “MIC[…] SYSTEMS FOR CANNABIS EXTRACTS AND […]” (Quicksilver Scientific, Inc., priority 2019, published 2022):
“Also recorded” adds a separate entry of the source.

Assay: Formation of shelf-stable and visually clear MOIW microemulsions with different constituents
Format: physicochemical
Description: A shelf-stable microemulsion may be determined in one of two ways. […] Either type of dissociation means that the microemulsion is not shelf-stable.
A visually clear microemulsion has an average particle diameter of 200 nm and less and lacks precipitated solid crystals visible to the naked eye.

| Compound | usefulness of the constituent for forming shelf-stable and visually clear MOIW microemulsions |
| --- | --- |
| OC[C@@H](O)[C@@H](O)CO [erythritol] | not useful |
| OC[C@@H](O)[C@@H](O)[C@H](O)[C@H](O)CO [mannitol] | not useful |
| OC[C@@H](O)[C@@H](O)[C@H](O)[C@@H](O)CO [sorbitol] | not useful |
| OC[C@@H](O)[C@H](O)[C@@H](O)CO [xylitol] | not useful |
| polysorbate 20 | did not form shelf-stable and visually clear microemulsions; also recorded: not useful |
